Assay results: patent US20030087947A1, “Novel photosensitizers of 9-hydroxypheophorbide-a derivatives used for photodynamic therapy” (priority 2000, published 2003)

How the values were obtained:
[1] = decomposing slowly in the room temperature; cited from earlier work
[2] = test system: lung cancer A549 cell line; test: In-vitro photodynamic therapy efficacy (cell death after irradiation); type: cell-based
Procedure: The cell line added with “Photogem” was treated and irradiated by red light (570˜650 nm, 0.35 mW/cm^2, 315 J/m^2) from fluorescent lamp and the test sample was treated and irradiated by same red light and laser (660 nm, 0.35 mW/cm^2, 315 J/m^2). After irradiation treatment, the cell line was cultured by adding new medium and 10% of fetal calf serum at 37° C. The cytotoxicity was measured by clonogenic assay after 8 days.
The dose-response curve was prepared after following treatment; i) treating each 25 µg/ml of Photogem, 10-hydroxypheophytin-a and 9-hydroxypheophorbide-a (“9-HPbD-a”) to each cell line; ii) laying them for 2 hours; and iii) treating and irradiating the 660 nm light (315 J/m^2). To the Photogem sample, the light (630±10 nm) was used by 1 KW Xenon lamp (Model A 5000; Photon Technology International Inc.; Power density 75 mW/cm^2) equipped with 5 mm diameter of liquid light guide (2000A, Luminex, Munich, Germany).
(§1) In order to minimize the side light reaction by natural light and lamp, the cell distribution and medium exchange were carried out in green light (500 nm), where the experimental samples were not reacted. After 75 μg/ml of reagent treatment on each 10 dishes at the dark culture room, the experimental samples were cultured for 48 hours. Then, the cell death rate was measured. The data was calculated as a mean value after 5 times experiments. […] Further, the cytotoxicity of 9-HPbD-a could be neglectable.
Further, in a small amount (0.75 μg/ml), high cell death effect was detected. Using another synthesized compound of 9-HPbD-a in the other batch, the experiment was performed according to same protocol again. We detected the same result through the repeated experiments.
With a very small amount 0.0185 μg/ml of administration, the cell death treated with 9-HPbD-a occurred according to the increase of total light dose.

[3] = test system: lung cancer A549 cell line; test: Cytotoxicity of photosensitizer without irradiation (dark culture, cell death rate); type: cell-based; details: 75 μg/ml, dark culture room, 48 hours, no irradiation, mean of 5 experiments
Procedure: as §1

[4] = when used in more than a certain amount; cited from earlier work
cyclin B1 = test: Western blot analysis of cell cycle regulation during photodynamic therapy; type: cell-based; details: 75˜0.0185 μg/ml, 20 joule total light dose
Procedure: FIG. 1 is a photograph showing cell cycle regulation after treating 9-hydroxypheophorbide-a of formula (I) to the cancer cell line.
The change of cell cycle is a key element for evaluating cancer treatment. In most anti-cancer agents, the growth of cancer cells is suppressed by regulating the expression of cell cycle regulation gene. In this example, the change of cell cycle was measured using 9-HPbD-a during the photodynamic therapy. Using various cencentrations of photosensitizer (75˜0.0185 μg/ml) under 20 joule in total light dose, Western blot analysis was carried out to detect the change of cell cycle in accordance with change of regulation activity of cell cycle regulation gene.

SNU-1041 implanted tumor [5] = test: Photodynamic therapy using 9-HPbD-a (6 groups, tumor volume and RTG); type: in vivo, nude mice BALB/C/nu/nu
Procedure: The experimental groups were divided into 6 groups when the volume of implanted tumor became about 100˜600 mm^3. Following treatment was performed and the change of tumor was observed.
With only 0.1˜0.15 ml of administration of 9-HPbD-a and liposome conjugate into the tumor, the change of tumor was observed without irradiation.
With only 0.1˜0.15 ml of administration of Photogem into the tumor, the change of tumor was observed without irradiation.
0.1˜0.15 ml of Photogem was administered into the tumor.
0.1˜0.15 ml of 9-HPbD-a and liposome conjugate was administered into the tumor.
The photodynamic therapy was initiated after 2 weeks from implantation of cancer cell line, when the volume of tumor became about 100˜600 mm^3 (FIG. 6).
The measurements of tumor volume were carried out at the time of just before administration of test material; just after administration of 9-HPbD-a; 1 week after administration; 2 weeks after administration; 3 weeks after administration; and 4 weeks after administration. The anti-cancer effect was evaluated by the volume of tumor. The calculation of volume was carried out by using following equation.
(V=volume, A=long axis, B=short axis, C=height)
The evaluation of anti-cancer effect was decided after 4 weeks observation of tumor volume. […] FIG. 7 is a photograph showing that the tumor is treated by administration of 9-HPbD-a with 660 nm diode laser irradiation.

cancer cell line = test: FACS analysis of cell cycle; type: cell-based; details: FACS analysis after treatment
SNU-1041 implanted tumor [6] = test: Therapeutic effect at the implanted tumor (3 groups, bare fiber tip laser); type: in vivo, nude mice BALB/C/nu/nu; details: among 10 cases; intratumoral injection 0.1˜0.2 ml, 660 nm diode laser after 1˜4 hours
Procedure: As experimental animals, 6 weeks aged male nude mice BALB/C/nu/nu were employed, supplying sterilized water and sterilized feed. These animals were bred in filter-top cage under proper temperature and moisture. To implant cultured cancer cell lines into nude mouse, 0.1 ml of SNU-1041 cell line suspension (10^7 cells/0.1 ml) was injected subcutaneously. After injection, the tumor occurred and the volume of tumor became increased after more than 8 weeks observation.
Plain melanoma cell line SNU-1041 was implanted into nude mouse. After the lapse of 8 weeks, it was observed that the tumor became spread in all body. The photodynamic therapy was performed only after the tumor volume became 100˜600 mm^3.
The experimental groups were divided into 3 groups for photodynamic therapy. 660 nm diode laser was inserted and irradiated using bare fiber tip. By monitoring the temperature outside of the tumor, the therapeutic effect caused by hyperthermia was removed. The optimal irradiation strength and time were measured.
The photodynamic therapy was performed when the volume of implanted tumor became about 100˜600 mm^3. The experimental groups were divided into 3 groups.
0.1˜0.2 ml of 9-HPbD-a (0.75 mg/ml) was injected into tumor using 30G syringe. After 1˜4 hours, 660 nm diode laser was irradiated using […] fiber optic tip. […]

[7] = 0.0185 μg/ml, total light dose 100 joule
[8] = 0.0375 μg/ml, total light dose 100 joule
[9] = 0.075 μg/ml, total light dose 100 joule
[10] = 0.75 μg/ml, total light dose 20 joule, 665 nm monochromatic light
[11] = 0.75 μg/ml, total light dose 100 joule
[12] = 7.5 μg/ml, total light dose 20 joule, 665 nm monochromatic light
[13] = 75 μg/ml, total light dose 20 joule, 665 nm monochromatic light
[14] = after 4 weeks from treatment, administration into tumor with 660 nm diode laser irradiation

Row | Compound | Stability [1] | Efficacy (cell death) [2, 7] [%] | Efficacy (cell death) [2, 8] [%] | Efficacy (cell death) [2, 9] [%] | Efficacy (cell death) [2, 10] | Efficacy (cell death) [2, 11] [%] | Efficacy (cell death) [2, 12] | Efficacy (cell death) ([2]; 7.5 μg/ml, total light dose 100 joule) [%] | Efficacy (cell death) [2, 13] [%] | Cytotoxicity (cell death rate) [3] [%] | Toxicity [4] | Concentration, relative to known photosensitizer concentration, showing considerable cell death effect ([2]; A549, total light dose 20 joule) | Amount of cyclin B1 (cyclin B1) | Relative tumor growth (RTG) (SNU-1041 implanted tumor [5]; [14]) | Volume of tumor (SNU-1041 implanted tumor [5]; [14]) [mm^3] | Change of tumor volume (SNU-1041 implanted tumor [5]; photosensitizer into the tumor only, without irradiation (Group 3 and 4)) | Cell cycle effect (cancer cell line) | Cases showing complete elimination of tumor (SNU-1041 implanted tumor [6]) [cases] | Cases showing partial elimination of tumor (SNU-1041 implanted tumor [6]) [cases]
1 | C=Cc1c(C)c2cc3nc(c4c5[nH]c(cc6nc(cc1[nH]2)C(C)=C6CC)c(C)c5C(=O)[C@@H]4C(=O)OC)[C@@H](CCC(=O)O)[C@@H]3C [pheophorbide-a] | low stability | – | – | – | – | – | – | – | – | – | – | – | – | – | – | – | – | – | –
2 | C=Cc1c(C)c2cc3nc(c4c5[nH]c(cc6nc(cc1[nH]2)C(C)=C6CC)c(C)c5C(=O)C4(O)C(=O)OC)C(CCC(=O)OCC=C(C)CCCC(C)CCCC(C)CCCC(C)C)C3C (stereo not drawn) [10-hydroxypheophytin-a, reference compound] | – | 0 | 0 | 0 | 0% | 5.85 | 5˜10% | 100 | <70 | 3.94 | fatal toxicity | – | – | – | – | – | – | – | –
3 | C=Cc1c(C)c2cc3nc(c4c5[nH]c(cc6nc(cc1[nH]2)C(C)=C6CC)c(C)c5C(O)[C@@H]4C(=O)OC)[C@@H](CCC(=O)O)[C@@H]3C (stereo partly drawn) [9-HPbD-a, 9-hydroxypheophorbide-a] | – | 10 | 25 | 100 | 10˜20% | 100 | 100% | – | 100 | 10.05 | – | 1/100 | rapidly declined | 3.5 | 646 | no observation of decline of tumor volume | cell cycle arrest occurred in G2/M cell cycle | 3 | 7
